The values that follow come from EP2305274A1, “Use of WNT stimulators for treating demyelinating diseases” (Centre National de la Recherche Scientifique (CNRS), priority 2009, dated 2011).

pIC50: −log10 of the molar value. Read-outs that look alike come from different tables or passages of the source.

The subject of one assay is GSK3. To be noted: cited from earlier work.
The subject of a further assay is MSC80 cells. Briefly: Western blot of MPZ, PMP22 and β-catenin proteins in MSC80 cells. It counts as cell-based, mouse. To be noted: SB216763 10 µM, after 3h, lasted until 24h. From the text:
Western blot analysis confirmed the stimulation of MPZ and PMP22 expression. […] This difference may be due to specific mRNA and protein half-life.
The increase in PMP22 protein expression was timedependent.
A general note: Immunoblotting shows a protein as a band on a membrane.

[1] abbreviates: GSK3 inhibitors, see Meijer L et al, Trends in Pharmacological Sciences 2004.

Take `CC(=O)O/N=C1/C(=C2/C(=O)Nc3cc(Br)ccc32)Nc2ccccc21` [6-bromoindirubin-3'acetoxime, (2'Z,3'E)-6-Bromoindirubin-3'-acetoxime]: the pIC50 (usually the negative decadic logarithm of the IC50, by convention in mol/L) with GSK3 (setting [1]) is over 7.00.
With `OCCCNc1cc(-c2ccnc(Nc3cccc(Cl)c3)n2)ccn1` [CGP60474, 3-{4-[2-(3-chlorophenylamino)-pyrimidin-4-yl]-pyridin-2-yl-amino}-propanol], the pIC50 with GSK3 (setting [1]) is over 7.00.
In the case of `Cc1c[nH]c(-c2cnc(NCCNc3ccc(C#N)cn3)nc2-c2ccc(Cl)cc2Cl)n1` [CHIR99021], the pIC50 in the assay on GSK3 (setting [1]) was […].
As for `[H]/N=C(/N)SCCCn1cc(C2=C(c3cn(C)c4ccccc34)C(=O)NC2=O)c2ccccc21` [Ro318220], the pIC50 in the assay with GSK3 (setting [1]) is over 7.00.
Turning to `Cn1cc(C2=C(c3ccc(Cl)cc3Cl)C(=O)NC2=O)c2ccccc21` [SB216763], the pIC50 in the assay with GSK3 (setting [1]) was […]. Besides, in the assay with MSC80 cells, the “expression of MPZ protein (Western blot)” value is listed as “enhanced”, the “expression of PMP22 protein (Western blot)” value is given as “enhanced” and the “expression of β-catenin protein (Western blot)” value is “enhanced”.
For `Nc1cccc(-c2cc3c(Oc4cccc(O)c4)ncnc3[nH]2)c1` [TWS119], in the assay with GSK3 (setting [1]), the pIC50 is over 7.00.
As to CHIR98014, the pIC50 with GSK3 was over 7.00.
